Data as given in PubChem BioAssay (NCI).
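Interpolation was linear, between the two tested concentrations surrounding the appropriate level; five concentrations were tested over 48 hours in 96-well plates. GI50 is the concentration that inhibits growth by half. At the TGI there is no net growth.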

Legend:
Experiment in all cases: NCI anticancer screen, dose series, 48 h
EKVX NSCLC = test system: EKVX NSCLC
M14 melanoma = test system: M14 melanoma
U251 CNS = test system: U251 CNS
SNB-19 CNS = test system: SNB-19 CNS
NCI-H226 lung = test system: NCI-H226 lung
MDA-N = test system: MDA-N
SK-MEL-2 melanoma = test system: SK-MEL-2 melanoma
786-0 renal = test system: 786-0 renal
UACC-62 melanoma = test system: UACC-62 melanoma
BT-549 breast = test system: BT-549 breast
UO-31 renal = test system: UO-31 renal
OVCAR-8 ovarian = test system: OVCAR-8 ovarian
SN12C renal = test system: SN12C renal
HCC-2998 colon = test system: HCC-2998 colon
HCT-116 colon = test system: HCT-116 colon
HS 578T breast = test system: HS 578T breast
RXF 393 renal = test system: RXF 393 renal
SK-MEL-5 melanoma = test system: SK-MEL-5 melanoma
TK-10 renal = test system: TK-10 renal
SF-268 CNS = test system: SF-268 CNS
OVCAR-4 ovarian = test system: OVCAR-4 ovarian
ACHN renal = test system: ACHN renal
SK-MEL-28 melanoma = test system: SK-MEL-28 melanoma
K-562 leukemia = test system: K-562 leukemia
KM12 colon = test system: KM12 colon
A549 NSCLC = test system: A549 NSCLC
MDA-MB-231 breast = test system: MDA-MB-231 breast
NCI/ADR-RES ovarian = test system: NCI/ADR-RES ovarian
T-47D breast = test system: T-47D breast
MOLT-4 leukemia = test system: MOLT-4 leukemia
OVCAR-5 ovarian = test system: OVCAR-5 ovarian
PC-3 prostate = test system: PC-3 prostate
SNB-75 CNS = test system: SNB-75 CNS
COLO 205 colon = test system: COLO 205 colon
NCI-H460 lung = test system: NCI-H460 lung
OVCAR-3 ovarian = test system: OVCAR-3 ovarian
HOP-62 NSCLC = test system: HOP-62 NSCLC
DU-145 prostate = test system: DU-145 prostate
NCI-H522 lung = test system: NCI-H522 lung
LOX IMVI melanoma = test system: LOX IMVI melanoma
SW-620 colon = test system: SW-620 colon
CCRF-CEM leukemia = test system: CCRF-CEM leukemia
CAKI-1 renal = test system: CAKI-1 renal
MDA-MB-435 = test system: MDA-MB-435
HOP-92 NSCLC = test system: HOP-92 NSCLC
MCF7 breast = test system: MCF7 breast
RPMI-8226 leukemia = test system: RPMI-8226 leukemia
SK-OV-3 ovarian = test system: SK-OV-3 ovarian
HCT-15 colon = test system: HCT-15 colon
SF-295 CNS = test system: SF-295 CNS
SR leukemia = test system: SR leukemia
HL-60(TB) leukemia = test system: HL-60(TB) leukemia
A498 renal = test system: A498 renal
IGROV1 ovarian = test system: IGROV1 ovarian
HT29 colon = test system: HT29 colon
MALME-3M melanoma = test system: MALME-3M melanoma
UACC-257 melanoma = test system: UACC-257 melanoma
NCI-H23 lung = test system: NCI-H23 lung
SF-539 CNS = test system: SF-539 CNS

Work on CCN(CC)C(=S)SS(=O)(=O)c1ccc(N)cc1 yielded a TGI (EKVX NSCLC) greater than 100 µM, a TGI (M14 melanoma) greater than 100 µM and a GI50 (U251 CNS) greater than 100 µM. The TGI (U251 CNS) was greater than 100 µM, the TGI (SNB-19 CNS) was greater than 100 µM and the GI50 (NCI-H226 lung) was 99.2 µM. It also gave a TGI (NCI-H226 lung) greater than 100 µM, a TGI (MDA-N) greater than 100 µM and a TGI (SK-MEL-2 melanoma) greater than 100 µM. The TGI (786-0 renal) was greater than 100 µM, the TGI (UACC-62 melanoma) was greater than 100 µM and the GI50 (BT-549 breast) was greater than 100 µM. For the same compound, the TGI (BT-549 breast) was greater than 100 µM, the TGI (UO-31 renal) was greater than 100 µM and the GI50 (OVCAR-8 ovarian) was greater than 100 µM. The TGI (OVCAR-8 ovarian) was greater than 100 µM, the GI50 (SN12C renal) was greater than 100 µM and the TGI (SN12C renal) was greater than 100 µM. It also gave a TGI (HCC-2998 colon) greater than 100 µM, a GI50 (HCT-116 colon) greater than 100 µM and a TGI (HCT-116 colon) greater than 100 µM. The TGI (HS 578T breast) was greater than 100 µM, the TGI (RXF 393 renal) was greater than 100 µM and the TGI (SK-MEL-5 melanoma) was greater than 100 µM. The GI50 (TK-10 renal) was greater than 100 µM, the TGI (TK-10 renal) was greater than 100 µM and the GI50 (SF-268 CNS) was greater than 100 µM. It also gave a TGI (SF-268 CNS) greater than 100 µM, a GI50 (OVCAR-4 ovarian) greater than 100 µM and a TGI (OVCAR-4 ovarian) greater than 100 µM. For the same compound, the TGI (ACHN renal) was greater than 100 µM, the GI50 (SK-MEL-28 melanoma) was greater than 100 µM and the TGI (SK-MEL-28 melanoma) was greater than 100 µM. For the same compound, the TGI (K-562 leukemia) was greater than 100 µM, the TGI (KM12 colon) was greater than 100 µM and the TGI (A549 NSCLC) was greater than 100 µM. It also gave a GI50 (MDA-MB-231 breast) greater than 100 µM, a TGI (MDA-MB-231 breast) greater than 100 µM and a GI50 (NCI/ADR-RES ovarian) greater than 100 µM. It also gave a TGI (NCI/ADR-RES ovarian) greater than 100 µM, a TGI (T-47D breast) greater than 100 µM and a TGI (MOLT-4 leukemia) greater than 100 µM. It also gave a TGI (OVCAR-5 ovarian) greater than 100 µM, a GI50 (PC-3 prostate) of 90.8 µM and a TGI (PC-3 prostate) greater than 100 µM. For the same compound, the GI50 (SNB-75 CNS) was 48.5 µM, the TGI (SNB-75 CNS) was greater than 100 µM and the GI50 (COLO 205 colon) was greater than 100 µM. For the same compound, the TGI (COLO 205 colon) was greater than 100 µM, the TGI (NCI-H460 lung) was greater than 100 µM and the GI50 (OVCAR-3 ovarian) was greater than 100 µM. For the same compound, the TGI (OVCAR-3 ovarian) was greater than 100 µM, the TGI (HOP-62 NSCLC) was greater than 100 µM and the GI50 (DU-145 prostate) was greater than 100 µM. For the same compound, the TGI (DU-145 prostate) was greater than 100 µM, the TGI (NCI-H522 lung) was greater than 26.6 µM and the GI50 (LOX IMVI melanoma) was greater than 100 µM. It also gave a TGI (LOX IMVI melanoma) greater than 100 µM, a GI50 (SW-620 colon) greater than 100 µM and a TGI (SW-620 colon) greater than 100 µM. The GI50 (CCRF-CEM leukemia) was greater than 100 µM, the TGI (CCRF-CEM leukemia) was greater than 100 µM and the TGI (CAKI-1 renal) was greater than 90.2 µM. For the same compound, the GI50 (MDA-MB-435) was greater than 100 µM, the TGI (MDA-MB-435) was greater than 100 µM and the TGI (HOP-92 NSCLC) was greater than 100 µM. It also gave a TGI (MCF7 breast) greater than 100 µM, a TGI (RPMI-8226 leukemia) greater than 100 µM and a TGI (SK-OV-3 ovarian) greater than 100 µM. For the same compound, the GI50 (HCT-15 colon) was greater than 100 µM, the TGI (HCT-15 colon) was greater than 100 µM and the GI50 (SF-295 CNS) was greater than 100 µM. It also gave a TGI (SF-295 CNS) greater than 100 µM, a TGI (SR leukemia) greater than 100 µM and a GI50 (HL-60(TB) leukemia) greater than 100 µM. It also gave a TGI (HL-60(TB) leukemia) greater than 100 µM, a TGI (A498 renal) greater than 94.2 µM and a TGI (IGROV1 ovarian) greater than 100 µM. The TGI (HT29 colon) was greater than 100 µM, the GI50 (MALME-3M melanoma) was 46.2 µM and the TGI (MALME-3M melanoma) was greater than 100 µM. It also gave a GI50 (UACC-257 melanoma) greater than 100 µM, a TGI (UACC-257 melanoma) greater than 100 µM and a TGI (NCI-H23 lung) greater than 100 µM.

Compound Cc1ccc(S(=O)(=O)C2=C([Si](C)(C)C)C3CC2[C@@H]2C4C=CC(CC4)[C@H]32)cc1 (some centres undefined) has a TGI (EKVX NSCLC) greater than 100 µM, a TGI (M14 melanoma) greater than 100 µM and a TGI (U251 CNS) greater than 100 µM. For the same compound, the TGI (SNB-19 CNS) was 76.1 µM, the TGI (NCI-H226 lung) was greater than 100 µM and the TGI (MDA-N) was greater than 100 µM. The TGI (SK-MEL-2 melanoma) was 77.4 µM, the TGI (786-0 renal) was greater than 100 µM and the TGI (UACC-62 melanoma) was greater than 100 µM. For the same compound, the TGI (BT-549 breast) was greater than 100 µM, the TGI (UO-31 renal) was greater than 100 µM and the TGI (OVCAR-8 ovarian) was greater than 100 µM. The TGI (SN12C renal) was greater than 100 µM, the TGI (HCC-2998 colon) was greater than 100 µM and the TGI (HCT-116 colon) was greater than 100 µM. For the same compound, the TGI (HS 578T breast) was greater than 100 µM, the TGI (RXF 393 renal) was greater than 100 µM and the TGI (SK-MEL-5 melanoma) was greater than 100 µM. The TGI (TK-10 renal) was 99.2 µM, the TGI (SF-268 CNS) was greater than 100 µM and the TGI (OVCAR-4 ovarian) was greater than 100 µM. For the same compound, the TGI (ACHN renal) was greater than 100 µM, the TGI (SK-MEL-28 melanoma) was greater than 100 µM and the TGI (K-562 leukemia) was greater than 100 µM. The TGI (KM12 colon) was greater than 100 µM, the TGI (A549 NSCLC) was greater than 100 µM and the TGI (MDA-MB-231 breast) was greater than 100 µM. For the same compound, the TGI (NCI/ADR-RES ovarian) was greater than 100 µM, the TGI (T-47D breast) was greater than 100 µM and the TGI (MOLT-4 leukemia) was greater than 100 µM. The TGI (OVCAR-5 ovarian) was greater than 100 µM, the TGI (PC-3 prostate) was greater than 100 µM and the TGI (COLO 205 colon) was greater than 100 µM. The TGI (NCI-H460 lung) was greater than 100 µM, the TGI (OVCAR-3 ovarian) was greater than 100 µM and the TGI (HOP-62 NSCLC) was greater than 100 µM. It also gave a TGI (DU-145 prostate) greater than 100 µM, a TGI (NCI-H522 lung) greater than 100 µM and a TGI (LOX IMVI melanoma) greater than 100 µM. The TGI (SW-620 colon) was greater than 100 µM, the TGI (CAKI-1 renal) was greater than 100 µM and the TGI (MDA-MB-435) was greater than 100 µM. The TGI (SF-539 CNS) was 88 µM, the TGI (HOP-92 NSCLC) was greater than 100 µM and the TGI (MCF7 breast) was greater than 100 µM. It also gave a TGI (SK-OV-3 ovarian) greater than 100 µM, a TGI (HCT-15 colon) greater than 100 µM and a TGI (SF-295 CNS) greater than 100 µM. For the same compound, the TGI (SR leukemia) was greater than 100 µM, the TGI (HL-60(TB) leukemia) was greater than 100 µM and the TGI (A498 renal) was greater than 100 µM. For the same compound, the TGI (IGROV1 ovarian) was greater than 100 µM, the TGI (HT29 colon) was greater than 100 µM and the TGI (MALME-3M melanoma) was greater than 100 µM. It also gave a TGI (UACC-257 melanoma) greater than 100 µM.
